Data set [1] deals with T1, NTS1R (Homo sapiens, UniProt P30989). Briefly: Fluorescence anisotropy (FA) equilibrium saturation binding at hNTS1R-displaying BBVs. The arrangement: NlucC (C-terminal fragment of nanoluciferase, 11 amino acids) (C); made in house; host or cells: Sf9 insect cells, baculovirus (pIMACE-CMVintP10-hNTS1R-Nluc, DH10MultiBac); budded baculovirus particles. Conditions: NTS1R-BBV, 27 °C. As for the experimental part:
FA-based NTS1R binding studies with 13 and 18 were performed at hNTS1R displaying budded baculovirus particles (termed BBVs below), which were obtained from Sf9 insect cells following the procedure reported for the preparation of neuropeptide Y Y1R displaying BBVs.[61] The obtained viruses were collected by centrifugation at 1600g for 10 min, and the virus titer was determined with an image-based cell-size estimation assay as described elsewhere.[62] The viruses were amplified using a multiplicity of infection (MOI) between 0.01 and 0.1 until a high-titer baculovirus stock (virus concentration of at least 1.0 × 10^8 infectious viral particles/mL) was acquired. To produce BBV preparations with a high receptor density, Sf9 cells with a density of 1.9 × 10^6 cells/mL were infected with an MOI of 3 and the BBVs were collected by centrifugation 63 h after the infection, when the cell viability was <30%. […]
FA measurements were performed with a Synergy NEO multimode plate reader (BioTek, Winooski, VT) and black, half area, flat bottom polystyrene nonbinding surface (NBS) 96-well plates (product no. 3993; Corning, Corning, NY). Polarizing excitation (530 ± 15 nm) and dual emission (590 ± 17.5 nm) filters with a dichroic mirror were used, allowing the simultaneous detection of parallelly and perpendicularly polarized fluorescence emission after polarizing beam splitter. […]
(In fluorescence polarisation assays a small probe gives low polarisation when free and higher when bound to something large.)

Data set [2] has as its target T1, NTS1R. The data set is described as follows: Fluorescence anisotropy (FA) association and dissociation kinetics at hNTS1R-displaying BBVs. Format: binding. Details: NlucC (C-terminal fragment of nanoluciferase, 11 amino acids) (C); made in house; host or cells: Sf9 insect cells, baculovirus (pIMACE-CMVintP10-hNTS1R-Nluc, DH10MultiBac); budded baculovirus particles. Conditions: NTS1R-BBV, 27 °C; for kon: from model fit, read-out: kon [min^–1 nM^–1] (converted); for koff: read-out: koff [min^–1] (converted). As for the experimental part:
FA-based NTS1R binding studies with 13 and 18 were performed at hNTS1R displaying budded baculovirus particles (termed BBVs below), which were obtained from Sf9 insect cells following the procedure reported for the preparation of neuropeptide Y Y1R displaying BBVs.[61] The obtained viruses were collected by centrifugation at 1600g for 10 min, and the virus titer was determined with an image-based cell-size estimation assay as described elsewhere.[62] The viruses were amplified using a multiplicity of infection (MOI) between 0.01 and 0.1 until a high-titer baculovirus stock (virus concentration of at least 1.0 × 10^8 infectious viral particles/mL) was acquired. To produce BBV preparations with a high receptor density, Sf9 cells with a density of 1.9 × 10^6 cells/mL were infected with an MOI of 3 and the BBVs were collected by centrifugation 63 h after the infection, when the cell viability was <30%. The BBVs were concentrated 40-fold by centrifugation at 48,000g at 4 °C for 40 min, washed with ice-cold DPBS (without supplements), resuspended, and homogenized using a 0.3 mm diameter needle (Sterican, B. Braun, Melsungen, Germany). Aliquots of the BBV preparations were stored at −90 °C until use.
FA measurements were performed with a Synergy NEO multimode plate reader (BioTek, Winooski, VT) and black, half area, flat bottom polystyrene nonbinding surface (NBS) 96-well plates (product no. 3993; Corning, Corning, NY). Polarizing excitation (530 ± 15 nm) and dual emission (590 ± 17.5 nm) filters with a dichroic mirror were used, allowing the simultaneous detection of parallelly and perpendicularly polarized fluorescence emission after polarizing beam splitter. All measurements were performed at 27 °C. For all experiments, DPBS2 was used as binding buffer. […]
25 μL of a 4-fold concentrated (compared to the final concentration) solution of 13 or 18 (final concentrations were 0.3 and 1 nM for both ligands) and 25 μL of DPBS2 were premixed in the 96-well plate followed by the addition of 50 μL of BBV suspension (used in six different concentrations; each was combined with the two ligand concentrations) to start the association. […] This enabled shorter time intervals between the read cycles (the measuring time for one cycle, comprising 4 wells, was 6 s; 100 read cycles were carried out). […] Immediately after the addition of SR142948, FA signals were measured for 10 min (within this time period, the dissociation was complete and a plateau was reached, respectively). Equilibrium binding was analyzed using the FA signals at 10 min. Fluorescence intensities were processed as previously reported[61] using the in-house developed software Aparecium 2.0.20 (http://www.gpcr.ut.ee/software.html).[63] […]

A short description of data set [3]: Recovery from human plasma/PBS 1:2 v/v. Format: in vitro ADME. Details: recovery compd. (%): dose or concentration left out as unconfirmed. Particulars: for recovery compd. (%): human plasma/PBS 1:2 v/v. The protocol: The proteolytic stabilities of 13 and 18 were investigated in human blood plasma/PBS (136.9 mM NaCl, 2.68 mM KCl, 5.62 mM Na2HPO4, 1.09 mM NaH2PO4, and 1.47 mM KH2PO4, pH 7.4) 1:2 v/v according to a described procedure[38] with the following modifications: 5 mM stock solutions in EtOH/10 mM aqueous HCl 1:1 v/v were used for the addition of the peptides to plasma/PBS 1:2 v/v. As the RP-HPLC purity of 1-methyl-D-Trp, used as internal standard (IS), was <95%, the compound was purified by preparative HPLC to give a purity of >99%. […] Samples were analyzed using the same RP-HPLC system and conditions as described under Analytical HPLC with the following gradient: 0–6 min: acetonitrile/0.04% aqueous TFA 10:90–21:79, 6–12 min: 21:79–40:60, 12–13 min: 40:60–95:5, 13–16 min: 95:5 (isocratic). Data analysis was based on UV detection at 220 nm. Reference samples, representing 100% recovery, were prepared in quadruplicate. Recovery ratios were obtained by dividing the recovery of the peptide by the recovery of IS for each individual sample (n = 4). The obtained recoveries and the recovery ratios are summarized in Table S2, Supporting Information.

Where “and” joins values, the source holds several entries; their conditions need not be identical. Equal entries are not always repeated.

T1 sequence (P30989 whole entry, the tested form may be a part): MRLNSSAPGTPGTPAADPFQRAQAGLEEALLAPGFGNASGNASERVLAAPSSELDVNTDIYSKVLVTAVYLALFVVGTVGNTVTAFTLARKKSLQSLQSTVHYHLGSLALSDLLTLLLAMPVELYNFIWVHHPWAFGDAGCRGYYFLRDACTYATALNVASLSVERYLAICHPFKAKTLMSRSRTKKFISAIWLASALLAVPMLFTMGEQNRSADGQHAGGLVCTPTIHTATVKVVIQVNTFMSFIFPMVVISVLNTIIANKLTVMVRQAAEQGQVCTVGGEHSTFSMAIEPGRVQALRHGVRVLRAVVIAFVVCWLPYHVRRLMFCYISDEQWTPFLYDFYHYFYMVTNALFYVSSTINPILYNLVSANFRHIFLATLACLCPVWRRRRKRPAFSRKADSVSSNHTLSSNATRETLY

As a reminder, the Kd is the concentration at which binding is half-saturated. The term kon denotes a measure of how fast the partners come together. The term koff denotes the first-order rate constant of dissociation. On to `CCC(=O)NCCCCNC(=O)NC(=N)NCCC[C@H](NC(=O)[C@@H]1CCCN1C(=O)[C@@H](NC(=O)CCc1cn(CCCNC(=O)CCC#Cc2ccc3c(c2)C(C)(C)C2=C4C=C5C6=[N+](CCC5OC4CCN23)c2ccc(S(=O)(=O)[O-])cc2C6(C)C)nn1)C1CCNCC1)C(=O)N[C@@H](CCCNC(=N)N)C(=O)N1CCC[C@H]1C(=O)N[C@H](C(=O)N[C@H](C(=O)N[C@@H](CC(C)C)C(=O)O)[C@@H](C)CC)C(C)(C)c1ccc(O)cc1` (stereo partly drawn) [Compound 18, N^α-(3-(N-(1-(8-Sulfonato-5,5,27,27-tetramethyl-16-oxa-20-aza-12-azoniaheptacyclo[15.11.0.03,15.04,12.06,11.020,28.021,26]octacosa-1(28),2,4(12),6(11),7,9,21(26),22,24-nonaen-24-yl)-5-oxopentyn-5-yl)-1-aminoprop-3-yl-1H-1,2,3-triazol-4-yl)propanoyl)-2-(piperidin-4-yl)-Gly-Pro-N^ω-[(4-(N-propanoyl)aminobutyl)aminocarbonyl]Arg-Arg-Pro-β,β-dimethyl-L-Tyr-Ile-Leu Tris(hydrotrifluoroacetate)], for which, at NTS1R [1], the Kd is 1.5 ± 0.1 nM. In addition, at NTS1R [2], the kon was 2.33e+07 M⁻¹ s⁻¹ and the koff is 0.00933 s⁻¹. Moreover, the “mean recovery ratio ± SEM” value in data set [3] (four independent experiments) is reported as 0.99 ± 0.02. In data set [3] (individual experiments), the “recovery compd. (%)” value was 98% and 72% and 65% and 70%. The “ratio of peptide recovery over recovery of internal standard” value in data set [3] (individual experiments, internal standard 1-methyl-D-tryptophan) is 1.01 (2×) and 1.03 and 0.91.

Turning to `CCC(=O)NCCCCNC(=O)N=C(N)NCCC[C@H](NC(=O)[C@@H]1CCCN1C(=O)[C@@H](NC(=O)CCc1cn(CCCNC(=O)c2ccc(-c3c4ccc(=[N+](C)C)cc-4oc4cc(N(C)C)ccc34)c(C(=O)[O-])c2)nn1)C1CCNCC1)C(=O)N[C@@H](CCCNC(=N)N)C(=O)N1CCC[C@H]1C(=O)N[C@@H](Cc1ccc(O)cc1)C(=O)N[C@H](C(=O)N[C@@H](CC(C)C)C(=O)O)[C@@H](C)CC` [Compound 13, N^α-(3-(1-N-((1-Carboxylato-2-(6-(dimethylamino)-3-(dimethyliminio)-3H-xanthen-9-yl)phen-5-yl)1-oxomethyl)aminoprop-3-yl-1H-1,2,3-triazol-4-yl)propanoyl)-2-(piperidin-4-yl)-Gly-Pro-N^ω-[(4-(N-propanoyl)aminobutyl)aminocarbonyl]Arg-Arg-Pro-Tyr-Ile-Leu Tris(hydrotrifluoroacetate)], the dissociation constant Kd at NTS1R [1] stood at 1.3 ± 0.1 nM. Besides, at NTS1R [2], the kon is 1.67e+07 M⁻¹ s⁻¹ and the koff was 0.0102 s⁻¹. Further, in data set [3] (individual experiments), the “recovery compd. (%)” value was 75% and 102% and 104%.

Values taken from article PMC11440508, “Dually Labeled Neurotensin NTS1R Ligands for Probing Radiochemical and Fluorescence-Based Binding Assays” (Journal of Medicinal Chemistry, 2024).
